Laboratory results as given in US20150313236A1 (ROHM AND HAAS COMPANY, priority 2012, published 2015).
Where two headings read alike, the source gives them in different places.

Key:
Chlorella sp. ATCC 7516 = experiment: Algal efficacy test of dry paint films (modified ASTM 5589, 6-well plates); type: cell-based; settings: for inhibition at 2000 ppm: 504 h, read-out: % inhibition of visible algal growth
Experimental: (§1) ROCIMA™ 250 (40% IPBC) was post added to a white, acrylic/silicone based outdoor paint free of biocides to give a total active ingredient concentration of 10000 and 1000 ppm respectively. These paints were then diluted with an antimicrobial free acrylic/silicone based paint and mixed to prepare targeted concentrations of antimicrobial compounds for the testing. The total biocides concentrations tested were 125, 250, 500, 1000, 2000 and 5000 ppm. After biocides addition or dilution, the paints were mixed 90 seconds with the horse power shaker (AXEL 75M3372/Agitateur SO-10MI) until uniformity was achieved. Paints containing different antimicrobial compounds at the same levels were mixed together in order to obtain the desired ratio of antimicrobial compounds. After one day, the paints were applied to Schleicher & Schuell filter paper at 280 μm wet film thickness and dried for 3 days at room temperature avoiding direct exposure to sunlight. Square discs (1.6 cm×1.6 cm) were cut out from each panel and were used as the substrate for algal efficacy tests. This sample size allowed for an agar border when the sample disc was placed into the well of the test plate.
(§2) Algal efficacy was tested according to modified ASTM 5589 which is a standard accelerated test method for determining resistance of various coatings (including paints) to algal defacement. To accommodate for high-throughput screening, this method was scaled down from petri dishes to 6-well plates. Bold Modified Basal Freshwater Nutrient Solution was used as growth medium. A single coated filter paper coupon was placed with a pair of sterile forceps at the center of the agar plug (on top) with the painted surface facing upwards. Algal inoculums were prepared by mixing equal concentrations (1×10^6 cfu/ml) and equal volumes of exponentially growing algae cultures.
(§3) Each well that contains a tested coupon was inoculated with 1750 μl of algal suspensions (1×10^6 cfu/ml) making sure that the whole surface (paint film as well as the agar surrounding it) was evenly covered. The plates were incubated at room temp (21° C.-25° C.) with cyclic exposure to light and dark phases, for a period of three weeks.
(§4) At the end of the three week incubation period, the samples were scored for percent inhibition regarding visible algal growth compared to the blank sample (0% inhibition).
(§5) The Synergy Index calculation was performed as follows.
(§6) The SI is calculated based on F. C. Kull et.
(§7) SI value of <1 in the formula indicates a synergism of the blended biocides exists.
(§8) The minimal targeted inhibition was set at 75%, meaning a coupon with at least 75% algal growth inhibition was considered as a pass.

[1] = system: Stichococcus bacillaris SAG 379-1a; experiment: as above; type: cell-based; settings: 3 weeks
Experimental: as §1, §2, §3, §4, §5, §6, §7, §8

## CCCCNC(=O)OCC#CI [IPBC, 3-Iodoprop-2-yn-1-yl butylcarbamate]
Chlorella sp. ATCC 7516; total conc 2000 ppm, 3 weeks, vs blank sample
  inhibition at 2000 ppm: 100%
Chlorella sp. ATCC 7516; total active in liquid paint, dry film, 3 weeks
  Total conc (minimum inhibitory concentration chosen for SI; pass level ≧75% inhibition): 2000 ppm
[1]; Stichococcus bacillaris, 504 h, total conc 1000 ppm, vs blank sample, read-out: % inhibition of visible algal growth
  inhibition at 1000 ppm: 100%
[1]; total active in liquid paint, dry film
  Total conc (minimum inhibitory concentration chosen for SI; pass level ≧75% inhibition): 1000 ppm

## O=c1[nH]c2c(c(=O)n1C1CCCCC1)CCC2 [Lenacil, 3-cyclohexyl-1,5,6,7-tetrahydrocyclopentapyrimidine-2,4(3H)-dione]
Chlorella sp. ATCC 7516
  inhibition at 2000 ppm: 65%
[1]; Stichococcus bacillaris, 504 h, total conc 2000 ppm, vs blank sample, read-out: % inhibition of visible algal growth
  inhibition at 2000 ppm: 80%
